Reference: patent US11104690B2, “Indazole derivatives useful as inhibitors of diacylglyceride O-acyltransferase 2” (Merck Sharp & Dohme Corp., priority 2016, dated 2021)

Molecular target: Human DGAT2 (Homo sapiens (Human), UniProt Q96PD7)
Test: DGAT2 Enzymatic Activity Assay (triolein formation, LC/MS/MS)
Type: biochemical
Settings: hDGAT2 Sf-9 membrane prep; 25 μM diolein, 10 μM oleoyl-CoA; room temperature
Outline: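 Membranes from Sf-9 cells infected with untagged hDGAT2 baculovirus, 10 ng/μL, at room temperature in 100 mM Tris.Cl pH 7.0, 20 mM MgCl2, 5% ethanol with 25 μM diolein and 10 μM oleoyl-CoA. Triolein quantified by LC/MS/MS against spiked internal standard; IC50 from 4-parameter sigmoidal fit.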

Sequence of Human DGAT2 (Q96PD7 whole entry): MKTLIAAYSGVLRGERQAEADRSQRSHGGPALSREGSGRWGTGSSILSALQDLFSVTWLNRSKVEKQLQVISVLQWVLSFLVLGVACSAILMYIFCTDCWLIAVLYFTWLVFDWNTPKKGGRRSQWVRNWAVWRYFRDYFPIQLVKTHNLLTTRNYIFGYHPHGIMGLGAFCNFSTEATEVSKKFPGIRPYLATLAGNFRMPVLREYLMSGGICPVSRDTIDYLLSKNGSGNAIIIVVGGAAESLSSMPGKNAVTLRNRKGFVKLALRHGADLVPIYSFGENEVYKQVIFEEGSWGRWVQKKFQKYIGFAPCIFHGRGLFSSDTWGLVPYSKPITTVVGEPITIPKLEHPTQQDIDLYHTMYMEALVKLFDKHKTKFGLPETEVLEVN

Row | SMILES | IC50 [nM]
1 | CC1(NC(=O)c2ccc3c(-c4ccccc4Cl)nn(C4CCCCO4)c3c2)CCS(=O)(=O)C1 (centres unmarked) [Example 191, 3-(2-Chlorophenyl)-N-(3-methyl-1,1-dioxidotetrahydrothiophen-3-yl)-1-(tetrahydro-2H-pyran-2-yl)-1H-indazole-6-carboxamide] | 182
2 | COc1ccc(-c2nn(-c3ccc(F)cc3)c3cc(C(=O)NC4(C)CCS(=O)(=O)C4)ccc23)cn1 (single isomer, unassigned) [Example 155-A, 1-(4-fluorophenyl)-3-(6-methoxypyridin-3-yl)-N-(3-methyl-1,1-dioxidotetrahydrothiophen-3-yl)-1H-indazole-6-carboxamide] | 353
3 | C[C@H](CO)NC(=O)c1ccc2c(-c3ccccc3Cl)nn(-c3ccc(F)cc3)c2c1 [Example 79, 3-(2-chlorophenyl)-1-(4-fluorophenyl)-N-[(1R)-hydroxy-1-methylethyl]-1H-indazole-6-carboxamide] | 772
4 | CC1(NC(=O)c2ccc3c(-c4cccc(OC(F)F)c4)nn(-c4ccc(F)cc4)c3c2)CCS(=O)(=O)C1 (single isomer, unassigned) [Example 143-A, 3-[3-(difluoromethoxy)phenyl]-1-(4-fluorophenyl)-N-(3-methyl-1,1-dioxidotetrahydrothiophen-3-yl)-1H-indazole-6-carboxamide] | 1.6
5 | O=C(NC1(c2ccc(Br)cc2)CC(O)C1)c1ccc2c(-c3ccccc3Cl)nn(-c3ccc(F)cc3)c2c1 (centres unmarked) [Example 108, N-[1-(4-bromophenyl)-3-hydroxycyclobutyl]-3-(2-chlorophenyl)-1-(4-fluorophenyl)-1H-indazole-6-carboxamide] | 393
6 | CCS(=O)(=O)CCNC(=O)c1ccc2c(-c3ccccc3Cl)nn(-c3ccc(F)cc3)c2c1 [Example 26, 3-(2-chlorophenyl)-N-[2-(ethylsulfonyl)ethyl]-1-(4-ftuorophenyl)-1H-indazole-6-carboxamide] | 446
7 | Cc1n[nH]c(C)c1C(C)NC(=O)c1ccc2c(-c3ccccc3Cl)nn(-c3ccc(F)cc3)c2c1 (racemic) [Example 17, 3-(2-chlorophenyl)-N-[1-(3,5-dimethyl-1H-pyrazol-4-yl)ethyl]-1-(4-fluorophenyl)-1H-indazole-6-carboxamide] | 83
8 | O=C(NCc1ccncc1)c1ccc2c(-c3ccccc3Cl)nn(-c3ccc(F)cc3)c2c1 [Example 33, 3-(2-chlorophenyl)-1-(4-fluorophenyl)-N-(pyridin-4-ylmethyl)-1H-indazole-6-carboxamide] | 654
9 | COC(=O)C1(NC(=O)c2ccc3c(-c4ccccc4Cl)nn(-c4ccc(F)cc4)c3c2)CCSC1 (racemic) [Example 59, methyl 3-({[3-(2-chlorophenyl)-1-(4-fluorophenyl)-1H-indazol-6-yl]carbonyl}amino)tetra-hydrothiophene-3-carboxylate] | 461
10 | O=C(NCCS(=O)(=O)NC1CCCCC1)c1ccc2c(-c3ccccc3Cl)nn(-c3ccc(F)cc3)c2c1 [Example 53, 3-(2-chlorophenyl)-N-[2-(cyclohexylsulfamoyl)ethyl]-1-(4-fluorophenyl)-1H-indazole-6-carboxamide] | 32
11 | C[C@@H](NC(=O)c1ccc2c(-c3ccccc3Cl)nn(-c3ccc(F)cc3)c2c1)c1cnc(C(F)(F)F)nc1 [Example 4, 3-(2-chlorophenyl)-1-(4-fluorophenyl)-N-{(1R)-1-[2-(trifluoromethyl)pyrimidin-5-yl]ethyl}-1H-indazole-6-carboxamide] | 67
12 | O=C(NCC1(O)CCCCC1)c1ccc2c(-c3ccccc3Cl)nn(-c3ccc(F)cc3)c2c1 [Example 44, 3-(2-chlorophenyl)-1-(4-fluorophenyl)-N-[(1-hydroxycyclohexyl)methyl]-1H-indazole-6-carboxamide] | 176
13 | CCCCC(NC(=O)c1ccc2c(-c3ccccc3Cl)nn(-c3ccc(F)cc3)c2c1)C(O)C(F)(F)F (centres unmarked) [Example 73, 3-(2-chlorophenyl)-1-(4-fluorophenyl)-N-[1-(2,2,2-trifluoro-1-hydroxyethyl)pentyl]-1H-indazole-6-carboxamide] | 534
14 | CC1(NC(=O)c2ccc3c(-c4ccc(Cl)nc4F)nn(-c4ccc(F)cc4)c3c2)CCS(=O)(=O)C1 (single isomer, unassigned) [Example 152-A, 3-(6-chloro-2-fluoropyridin-3-yl)-1-(4-fluorophenyl)-N-(3-methyl-1,1-dioxidotetrahydrothiophen-3-yl)-1H-indazole-6-carboxamide] | 4.5
15 | O=C(NCc1cccnc1)c1ccc2c(-c3ccccc3Cl)nn(-c3ccc(F)cc3)c2c1 [Example 31, 3-(2-chlorophenyl)-1-(4-fluorophenyl)-N-(pyridin-3-ylmethyl)-1H-indazole-6-carboxamide] | 320
16 | O=C(N[C@H](CO)Cc1ccccc1)c1ccc2c(-c3ccccc3Cl)nn(-c3ccc(F)cc3)c2c1 [Example 110, N-[(1S)-1-benzyl-2-hydroxyethyl]-3-(2-chlorophenyl)-1-(4-fluorophenyl)-1H-indazole-6-carboxamide] | 134

Row | SMILES | IC50 [nM]
17 | CC1(NC(=O)c2ccc3c(-c4ccccc4Cl)nn(-c4ncc(F)cn4)c3c2)CCS(=O)(=O)C1 (racemic) [Example 181, 3-(2-chlorophenyl)-1-(5-fluoropyrimidin-2-yl)-N-(3-methyl-1,1-dioxidotetradioxidotetradioxido-tetradioxidotetra-hydrothiophen-3-yl)-1H-indazole-6-carboxamide] | 391
18 | Cc1ncc([C@H](C)NC(=O)c2ccc3c(-c4ccccc4Cl)nn(-c4ccc(F)cc4)c3c2)cn1 [Example 34, 3-(2-chlorophenyl)-1-(4-fluorophenyl)-N-[(1S)-1-(2-methylpyrimidin-5-yl)ethyl]-1H-indazole-6-carboxamide] | 75
19 | CC(NC(=O)c1ccc2c(-c3ccccc3Cl)nn(-c3ccc(F)cc3)c2c1)c1nncn1C (racemic) [Example 36, 3-(2-chlorophenyl)-1-(4-fluorophenyl)-N-[1-(4-methyl-4H-1,2,4-triazol-3-yl)ethyl]-1H-indazole-6-carboxamide] | 889
20 | O=C(NCC1(O)CC1)c1ccc2c(-c3ccccc3Cl)nn(-c3ccc(F)cc3)c2c1 [Example 114, 3-(2-chlorophenyl)-1-(4-fluorophenyl)-N-[(1-hydroxycyclopropyl)methyl]-1H-indazole-6-carboxamide] | 627
21 | O=C(NC1CCS(=O)(=O)CC1)c1ccc2c(-c3ccccc3Cl)nn(-c3ccc(F)cc3)c2c1 [Example 24, 3-(2-chlorophenyl)-N-(1,1-dioxidotetrahydro-2H-thiopyran-4-yl)-1-(4-fluorophenyl)-1H-indazole-6-carboxamide] | 61
22 | CCC(CO)NC(=O)c1ccc2c(-c3ccccc3Cl)nn(-c3ccc(F)cc3)c2c1 (racemic) [Example 65, 3-(2-chlorophenyl)-1-(4-fluorophenyl)-N-[1-(hydroxyinethyl)propyl]-1H-indazole-6-carboxamide] | 170
23 | Cc1cccc(-c2nn(-c3ccc(F)cc3)c3cc(C(=O)NC4(C)CCS(=O)(=O)C4)ccc23)c1 (single isomer, unassigned) [Example 156-A, 1-(4-fluorophenyl)-N-(3-methyl-1,1-dioxidotetrahydrothiophen-3-yl)-3-(3-methylphenyl)-1H-indazole-6-carboxamide] | 11
24 | O=C(NC(CCN1CCOCC1)c1ccccc1)c1ccc2c(-c3ccccc3Cl)nn(-c3ccc(F)cc3)c2c1 (racemic) [Example 109, 3-(2-chlorophenyl)-1-(4-fluorophenyl)-N-(3-morpholin-4-yl-1-phenylpropyl)-1H-indazole-6-carboxamide] | 532
25 | O=C(NC1(CO)CCC1)c1ccc2c(-c3ccccc3Cl)nn(-c3ccc(F)cc3)c2c1 [Example 88, 3-(2-chlorophenyl)-1-(4-fluorophenyl)-N-[1-(hydroxymethyl)cyclobutyl]-1H-indazole-6-carboxamide] | 15
26 | O=C(NC1CCS(=O)(=O)C1)c1ccc2c(-c3cccc(OC(F)F)c3)nn(-c3ccc(F)cc3)c2c1 (single isomer, unassigned) [Example 136-A, 3-[3-(difluoromethoxy)phenyl]-N-(1,1-dioxidotetrahydrothiophen-3-yl)-1-(4-fluorophenyl)-1H-indazole-6-carboxamide] | 1.4
27 | O=C(NC1CCS(=O)(=O)C1)c1ccc2c(-c3ccccc3Cl)nn(-c3ccc(Cl)cn3)c2c1 (single isomer, unassigned) [Example 173-A, 3-(2-chlorophenyl)-1-(5-chloropyridin-2-yl)-N-(1,1-dioxidotetrahydrothiophen-3-yl)-1H-indazole-6-carboxamide] | 23
28 | CN1CC(NC(=O)c2ccc3c(-c4ccccc4Cl)nn(-c4ccc(F)cc4)c3c2)CC1=O (racemic) [Example 22, 3-(2-chlorophenyl)-1-(4-fluorophenyl)-N-(1-methyl-5-oxopyrrolidin-3-yl)-1H-indazole-6-carboxamide] | 102
29 | CC1(NC(=O)c2ccc3c(-c4cc(C#N)ccc4Cl)nn(-c4ccc(F)cc4)c3c2)CCS(=O)(=O)C1 (single isomer, unassigned) [Example 119-B, 3-(2-chloro-5-cyanophenyl)-1-(4-fluorophenyl)-N-(3-methyl-1,1-dioxidotetrahydrothiophen-3-yl)-1H-indazole-6-carboxamide] | 2.5
30 | O=C(NCCn1cnnc1)c1ccc2c(-c3ccccc3Cl)nn(-c3ccc(F)cc3)c2c1 [Example 39, 3-(2-chlorophenyl)-1-(4-fluorophenyl)-N-[2-(4H-1,2,4-triazol-4-yl)ethyl]-1H-indazole-6-carboxamide] | 96
31 | O=C(NC1(CO)CCSC1)c1ccc2c(-c3ccccc3Cl)nn(-c3ccc(F)cc3)c2c1 (racemic) [Example 98, 3-(2-chlorophenyl)-1-(4-fluorophenyl)-N-[3-(hydroxymethyl)tetrahydrothiophen-3-yl]-1H-indazole-6-carboxamide] | 45
32 | O=C1CC(NC(=O)c2ccc3c(-c4ccccc4Cl)nn(-c4ccc(F)cc4)c3c2)C1 [Example 104, 3-(2-chlorophenyl)-1-(4-fluorophenyl)-N-(3-oxocyclobutyl)-1H-indazole-6-carboxamide] | 180
